Some results are limits rather than exact numbers.

The assay addresses F508delCFTR (Homo sapiens, UniProt P13569, DEL508-508). Description: Cell Surface Expression-Horse Radish Peroxidase (CSE-HRP) assay. In kind it is cell-based. Particulars: CFBE4lo-F508delCFTR-HRP cells; for EC50: 18-24 hours at 33° C., 8-point curve, highest concentration 20 μM, luminescence readout; for Emax: maximum % activity at any tested concentration, normalized to on-plate positive control (3 μM Example 1). Set-up: expressed in transfected cells; host or cells: CFBE41o- human lung derived epithelial cell line, doxycycline-inducible. The essentials: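 Following 18-24 h compound exposure at 33° C. Expression was doxycycline-induced beforehand. % activity versus DMSO and a 3 μM corrector control gave maximum activity and EC50 from a variable-Hill sigmoidal fit.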

F508delCFTR, sequence (P13569 with tags, fused parts or gaps DEL508-508): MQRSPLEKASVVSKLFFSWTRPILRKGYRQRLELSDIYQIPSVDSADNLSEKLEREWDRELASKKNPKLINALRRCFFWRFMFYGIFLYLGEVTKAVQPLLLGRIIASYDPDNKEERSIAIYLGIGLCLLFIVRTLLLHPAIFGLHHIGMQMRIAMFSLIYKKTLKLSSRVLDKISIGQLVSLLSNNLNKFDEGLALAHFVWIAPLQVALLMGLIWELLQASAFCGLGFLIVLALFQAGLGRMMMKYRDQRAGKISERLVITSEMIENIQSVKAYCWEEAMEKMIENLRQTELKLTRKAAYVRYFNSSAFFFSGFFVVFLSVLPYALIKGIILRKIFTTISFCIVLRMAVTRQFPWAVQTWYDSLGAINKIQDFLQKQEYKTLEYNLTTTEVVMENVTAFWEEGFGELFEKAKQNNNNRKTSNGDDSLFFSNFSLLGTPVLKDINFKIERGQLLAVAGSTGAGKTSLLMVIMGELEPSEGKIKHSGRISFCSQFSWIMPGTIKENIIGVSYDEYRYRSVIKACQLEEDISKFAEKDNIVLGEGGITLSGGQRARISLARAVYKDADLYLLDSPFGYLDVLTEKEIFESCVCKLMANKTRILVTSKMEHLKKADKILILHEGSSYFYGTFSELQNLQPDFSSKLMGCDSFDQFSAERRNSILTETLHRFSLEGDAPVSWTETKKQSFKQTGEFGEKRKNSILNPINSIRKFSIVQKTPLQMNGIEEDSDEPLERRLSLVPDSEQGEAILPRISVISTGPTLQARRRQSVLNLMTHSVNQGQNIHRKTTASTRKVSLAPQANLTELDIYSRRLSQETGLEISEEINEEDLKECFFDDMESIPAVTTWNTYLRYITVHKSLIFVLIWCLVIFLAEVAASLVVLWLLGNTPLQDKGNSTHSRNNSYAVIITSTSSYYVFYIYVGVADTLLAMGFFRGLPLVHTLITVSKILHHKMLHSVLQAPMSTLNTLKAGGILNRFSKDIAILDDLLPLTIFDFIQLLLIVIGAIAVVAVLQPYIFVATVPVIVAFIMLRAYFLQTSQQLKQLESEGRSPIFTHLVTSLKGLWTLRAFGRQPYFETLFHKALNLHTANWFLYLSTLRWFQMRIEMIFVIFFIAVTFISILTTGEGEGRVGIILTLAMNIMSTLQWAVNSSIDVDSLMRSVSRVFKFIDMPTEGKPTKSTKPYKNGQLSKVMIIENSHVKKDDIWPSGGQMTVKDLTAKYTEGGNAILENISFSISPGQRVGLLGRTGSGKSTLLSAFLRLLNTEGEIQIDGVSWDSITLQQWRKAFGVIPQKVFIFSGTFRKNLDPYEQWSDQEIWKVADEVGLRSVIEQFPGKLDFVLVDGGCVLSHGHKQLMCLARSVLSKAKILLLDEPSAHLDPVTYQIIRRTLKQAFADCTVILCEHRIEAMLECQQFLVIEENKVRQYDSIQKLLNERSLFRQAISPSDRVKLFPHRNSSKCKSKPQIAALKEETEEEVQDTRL

What is called EC50 is the concentration at which the effect is half-maximal. What is called Emax is the maximal effect, on the per cent scale that the assay sets. `CCC1(CC)C[C@@H](NC(=O)C2(c3ccc4c(c3)OC(F)(F)O4)CC2)c2ccccc2O1` [Example 74, N-[(4R)-2,2-diethyl-3,4-dihydro-2H-chromen-4-yl]-1-(2,2-difluoro-1,3-benzodioxol-5-yl)cyclopropanecarboxamide]: the 50% effective concentration (EC50) came to 5.53 µM and the Emax amounted to 98%.

`O=C(N[C@@H]1CC(CF)(CF)Oc2ccccc21)C1(c2ccc3c(c2)OC(F)(F)O3)CC1` [Example 75, N-[(4R)-2,2-bis(fluoromethyl)-3,4-dihydro-2H-chromen-4-yl]-1-(2,2-difluoro-1,3-benzodioxol-5-yl)cyclopropanecarboxamide] returned an EC50 of 3.28 µM and an Emax of 75%.

`CC1(C)C[C@@H](NC(=O)C2(c3ccc4c(c3)OC(F)(F)O4)CC2)c2ccc(Cl)cc2O1` [Example 76, N-[(4R)-7-chloro-2,2-dimethyl-3,4-dihydro-2H-chromen-4-yl]-1-(2,2-difluoro-1,3-benzodioxol-5-yl)cyclopropanecarboxamide] returned an EC50 of 2.99 µM and an Emax of 105%.

`O=C(N[C@@H]1CC2(CCCC2)Oc2ccccc21)C1(c2ccc3c(c2)OC(F)(F)O3)CC1` [Example 78, 1-(2,2-difluoro-1,3-benzodioxol-5-yl)-N-[(4R)-3,4-dihydrospiro[chromene-2,1′-cyclopentan]-4-yl]cyclopropanecarboxamide] had an EC50 of 5.28 µM and an Emax of 95%.

On to `O=C(N[C@@H]1CC(CF)(CF)Oc2cc(F)ccc21)C1(c2ccc3c(c2)OC(F)(F)O3)CC1` [Example 79, 1-(2,2-difluoro-1,3-benzodioxol-5-yl)-N-[(4R)-7-fluoro-2,2-bis(fluoromethyl)-3,4-dihydro-2H-chromen-4-yl]cyclopropanecarboxamide], for which the response was half-maximal at 7.25 µM (EC50) and the maximum response (Emax) came out at 117%.

Molecule `C[C@@]1(CF)C[C@@H](NC(=O)C2(c3ccc4c(c3)OC(F)(F)O4)CC2)c2ccc(C(F)(F)F)cc2O1` [Example 80, 1-(2,2-difluoro-1,3-benzodioxol-5-yl)-N-[(2S,4R)-2-(fluoromethyl)-2-methyl-7-(trifluoromethyl)-3,4-dihydro-2H-chromen-4-yl]cyclopropanecarboxamide] yielded a concentration giving a half-maximal response (EC50) of 1.55 µM and a maximal effect (Emax) of 114%.

Consider `C[C@]1(C(F)F)C[C@@H](NC(=O)C2(c3ccc4c(c3)OC(F)(F)O4)CC2)c2ccccc2O1` [Example 81, 1-(2,2-difluoro-1,3-benzodioxol-5-yl)-N-[(2R,4R)-2-(difluoromethyl)-2-methyl-3,4-dihydro-2H-chromen-4-yl]cyclopropanecarboxamide], for which the EC50 turned out to be 4.5 µM and the maximal effect (Emax) came to 98%.

As for `C[C@@]1(C(F)F)C[C@@H](NC(=O)C2(c3ccc4c(c3)OC(F)(F)O4)CC2)c2ccccc2O1` [Example 82, 1-(2,2-difluoro-1,3-benzodioxol-5-yl)-N-[(2S,4R)-2-(difluoromethyl)-2-methyl-3,4-dihydro-2H-chromen-4-yl]cyclopropanecarboxamide], the concentration for a half-maximal effect (EC50) was 2.72 µM and the maximal response (Emax) was found to be 97%.

In turn, `C[C@@]1(C(F)F)C[C@@H](NC(=O)C2(c3ccc4c(c3)OC(F)(F)O4)CC2)c2ccc(Cl)cc2O1` [Example 83, N-[(2S,4R)-7-chloro-2-(difluoromethyl)-2-methyl-3,4-dihydro-2H-chromen-4-yl]-1-(2,2-difluoro-1,3-benzodioxol-5-yl)cyclopropanecarboxamide] had an EC50 of 2.72 µM and an Emax of 106%.

`C[C@]1(C(F)F)C[C@@H](NC(=O)C2(c3ccc4c(c3)OC(F)(F)O4)CC2)c2ccc(Cl)cc2O1` [Example 84, N-[(2R,4R)-7-chloro-2-(difluoromethyl)-2-methyl-3,4-dihydro-2H-chromen-4-yl]-1-(2,2-difluoro-1,3-benzodioxol-5-yl)cyclopropanecarboxamide]: the concentration giving a half-maximal response (EC50) was determined as 2.24 µM and the Emax stood at 91%.

As for `C[C@@]1(C(F)(F)F)C[C@@H](NC(=O)C2(c3ccc4c(c3)OC(F)(F)O4)CC2)c2ccccc2O1` [Example 85, 1-(2,2-difluoro-1,3-benzodioxol-5-yl)-N-[(2S,4R)-2-methyl-2-(trifluoromethyl)-3,4-dihydro-2H-chromen-4-yl]cyclopropanecarboxamide], a half-maximal response (EC50) required 6.81 µM and the Emax amounted to 108%.

As to `CC1(C)C[C@@H](NC(=O)C2(c3ccc4c(c3)OC(F)(F)O4)CC2)c2ccc(F)cc2O1` [Example 86, 1-(2,2-difluoro-1,3-benzodioxol-5-yl)-N-[(4R)-7-fluoro-2,2-dimethyl-3,4-dihydro-2H-chromen-4-yl]cyclopropanecarboxamide], the EC50 was found to be 3.5 µM and the Emax is 101%.

`O=C(N[C@@H]1CC(CF)(CF)Oc2cc(Cl)ccc21)C1(c2ccc3c(c2)OC(F)(F)O3)CC1` [Example 87, N-[(4R)-7-chloro-2,2-bis(fluoromethyl)-3,4-dihydro-2H-chromen-4-yl]-1-(2,2-difluoro-1,3-benzodioxol-5-yl)cyclopropanecarboxamide]: the concentration giving a half-maximal response (EC50) amounted to 4.63 µM and the Emax is 146%.

With `CC1(C)C[C@@H](NC(=O)C2(c3ccc4c(c3)OC(F)(F)O4)CC2)c2ccc(F)c(Cl)c2O1` [Example 90, N-[(4R)-8-chloro-7-fluoro-2,2-dimethyl-3,4-dihydro-2H-chromen-4-yl]-1-(2,2-difluoro-1,3-benzodioxol-5-yl)cyclopropanecarboxamide], the half-maximal effective concentration (EC50) turned out to be 3.44 µM and the Emax was determined as 42%.

Molecule `COc1ccc2c(c1)OCC(Cc1ccc(OC)c(OC)c1)C2NC(=O)C1(c2ccc3c(c2)OC(F)(F)O3)CC1` (stereo not drawn) [Example 91, 1-(2,2-difluoro-1,3-benzodioxol-5-yl)-N-[3-(3,4-dimethoxybenzyl)-7-methoxy-3,4-dihydro-2H-chromen-4-yl]cyclopropanecarboxamide] displayed an EC50 of 2.71 µM and an Emax of 82%.

Consider `CC(C)(C)OC(=O)N1CCC2(CC1)CC(NC(=O)C1(c3ccc4c(c3)OC(F)(F)O4)CC1)c1ccc(F)cc1O2` (stereo not drawn) [Example 92, tert-butyl 4-({[1-(2,2-difluoro-1,3-benzodioxol-5-yl)cyclopropyl]carbonyl}amino)-7-fluoro-3,4-dihydro-1′H-spiro[chromene-2,4′-piperidine]-1′-carboxylate], for which the EC50 came to 2.57 µM and the Emax is 71%.

The molecule `O=C(NC1CC2(CCNCC2)Oc2cc(F)ccc21)C1(c2ccc3c(c2)OC(F)(F)O3)CC1` (stereo not drawn) [Example 93, 1-(2,2-difluoro-1,3-benzodioxol-5-yl)-N-(7-fluoro-3,4-dihydrospiro[chromene-2,4′-piperidin]-4-yl)cyclopropanecarboxamide] gave an EC50 of 2.8 µM and an Emax of 26%.

In the case of `COCCOc1ccc2c(c1)O[C@@H](c1cccc(C(=O)OC)c1)C[C@H]2NC(=O)C1(c2ccc3c(c2)OC(F)(F)O3)CC1` [Example 94, methyl 3-[(2R,4R)-4-({[1-(2,2-difluoro-1,3-benzodioxol-5-yl)cyclopropyl]carbonyl}amino)-7-(2-methoxyethoxy)-3,4-dihydro-2H-chromen-2-yl]benzoate], the EC50 was found to be 0.94 µM and the Emax was found to be 119%.

Turning to `COC(=O)c1cccc([C@H]2C[C@@H](NC(=O)C3(c4ccc5c(c4)OC(F)(F)O5)CC3)c3ccc(OCc4ccccc4)cc3O2)c1` [Example 95, methyl 3-[(2R,4R)-7-(benzyloxy)-4-({[1-(2,2-difluoro-1,3-benzodioxol-5-yl)cyclopropyl]carbonyl}amino)-3,4-dihydro-2H-chromen-2-yl]benzoate], the response was half-maximal at 0.92 µM (EC50) and the Emax came to 98%.

The molecule `O=C(O)COc1ccc2c(c1)O[C@@H](c1cccc(C(=O)O)c1)C[C@H]2NC(=O)C1(c2ccc3c(c2)OC(F)(F)O3)CC1` [Example 96, 3-[(2R,4R)-7-(carboxymethoxy)-4-({[1-(2,2-difluoro-1,3-benzodioxol-5-yl)cyclopropyl]carbonyl}amino)-3,4-dihydro-2H-chromen-2-yl]benzoic acid] returned a concentration giving a half-maximal response (EC50) not below 20 µM and an Emax of 15%.

`COCCOc1ccc2c(c1)O[C@@H](c1cccc(C(=O)O)c1)C[C@H]2NC(=O)C1(c2ccc3c(c2)OC(F)(F)O3)CC1` [Example 97, 3-[(2R,4R)-4-({[1-(2,2-difluoro-1,3-benzodioxol-5-yl)cyclopropyl]carbonyl}amino)-7-(2-methoxyethoxy)-3,4-dihydro-2H-chromen-2-yl]benzoic acid] showed a half-maximal effective concentration (EC50) of 0.38 µM and a maximal response (Emax) of 90%.

The molecule `O=C(O)c1cccc([C@H]2C[C@@H](NC(=O)C3(c4ccc5c(c4)OC(F)(F)O5)CC3)c3ccc(OCc4ccccc4)cc3O2)c1` [Example 98, 3-[(2R,4R)-7-(benzyloxy)-4-({[1-(2,2-difluoro-1,3-benzodioxol-5-yl)cyclopropyl]carbonyl}amino)-3,4-dihydro-2H-chromen-2-yl]benzoic acid] came in with an EC50 of 0.57 µM and an Emax of 102%.

`O=C(NC1CC2(CCN(C[C@@H](O)CO)CC2)Oc2cc(F)ccc21)C1(c2ccc3c(c2)OC(F)(F)O3)CC1` (stereo partly drawn) [Example 99, 1-(2,2-difluoro-1,3-benzodioxol-5-yl)-N-{1′-[(2R)-2,3-dihydroxypropyl]-7-fluoro-3,4-dihydrospiro[chromene-2,4′-piperidin]-4-yl}cyclopropanecarboxamide] registered a concentration for a half-maximal effect (EC50) of 3.89 µM and an Emax of 56%.

The molecule `O=C(OCc1ccccc1)N1CC2(CC(NC(=O)C3(c4ccc5c(c4)OC(F)(F)O5)CC3)c3ccc(F)cc3O2)C1` (stereo not drawn) [Example 100, benzyl 4′-({[1-(2,2-difluoro-1,3-benzodioxol-5-yl)cyclopropyl]carbonyl}amino)-7′-fluoro-3′,4′-dihydro-1H-spiro[azetidine-3,2′-chromene]-1-carboxylate] showed an EC50 of 3.08 µM and an Emax of 40%.

For the origin of these results see patent US9642831B2, “Substituted chromanes and method of use” (AbbVie S.á.r.l., priority 2014, dated 2017).
